Experimental data taken from US20150174193A1, “AGENTS FOR TREATING CYSTIC FIBROSIS” (INSERM, priority 2012, published 2015).
“Also recorded” adds a separate entry of the source.

Columns and labels:
[1] = tested on: neutrophil serine proteases (HNE, Pr3 and CG); assay: Proteases activities and inhibition in CF sputum, overall comparison of treatments; type: biochemical, human; conditions: compared with pLK of higher MW (40,000-50,000 Da)
Description: (§1) Sputum processing-CF sputum was collected into 50 ml Falcon® tubes by physiotherapy and processed immediately. Sputum was diluted with 3 volumes of PBS per gram and homogenized to obtain a crude homogenate that was kept on ice. An aliquot of each homogenate was incubated for 2 h in low-binding microtubes with 400 μg/ml DNase or with 1.5 mg/ml of poly-L-Lysine (pLK) or PEGylated pLK (PEG-g-pLK) under gentle stirring at room temperature, then layered on a glass slide for cell counting by trypan blue exclusion and visual aspect under the optical microscope. Different sizes of pLK were tested (pLK, HBr of either 500-2,000 Da, 1000-5,000 Da, 4,000-15,000 Da and 40,000-50,000 Da molecular weight). PEG-g-pLK was pLK of 40,000-50,000 Da molecular weight grafted with one mPEG molecule of 5,000 Da.
Proteases activities were measured as described in (26) with the specific FRET (fluorescence resonance energy transfer) substrates of HNE, Pr3 and CG: Abz-APEEIMRRQ-YNO2, Abz-VADnVADQ-EDDnp and Abz-TPFSGQ-YNO2 respectively (λex=320 nm and λem=420 nm). The concentrations of active proteases in biological samples were determined by comparing the rates of hydrolysis of their specific substrates with those of commercial titrated proteases under the same experimental conditions. […]

[2] = tested on: control mice; type: in vivo, mouse
Description: The objective of the study was to identify the nature and the dose of polycations to be aerosolized safely in control mice.
In vivo assessment of polycations toxicity has been done by cytologic analysis of bronchoalveolar lavage fluids (BALFs), quantification of proinflammatory cytokines (IL6 and KC) and lung anatomopathology.
Aerosol administration of different doses of pLK was done using a Microsprayer®. Mice were killed at day 2 and day 5 and bronchoalveolar lavage fluids (BALF) were obtained with instillation of 5×0.5 mL of sterile PBS into the lungs. Lungs were perfused with 4% formaldehyde for histological studies. Cells were collected after centrifugation of BALFs, suspended in PBS, and analyzed by flow cytometry. The supernatant was used for cytokine quantification using commercially available ELISA kits.

[3] = tested on: Beas-2B cells; assay: In vitro cellular toxicity in Beas-2B cell cultures; type: cell-based; conditions: in vitro cultures of Beas-2B cells
[4] = target: T1, CG (Homo sapiens, UniProt P08311); assay: CG activity in whole CF sputa and its inhibition by ACT; type: biochemical; conditions: after treatment of whole CF sputum
T1 construct: Aliquots of sputum homogenates containing peptidases in the 10 nanomolar range; from tissue; host or cells: sputum of cystic fibrosis patients (crude homogenate in PBS)
T1 sequence (P08311 21-243 limits assumed): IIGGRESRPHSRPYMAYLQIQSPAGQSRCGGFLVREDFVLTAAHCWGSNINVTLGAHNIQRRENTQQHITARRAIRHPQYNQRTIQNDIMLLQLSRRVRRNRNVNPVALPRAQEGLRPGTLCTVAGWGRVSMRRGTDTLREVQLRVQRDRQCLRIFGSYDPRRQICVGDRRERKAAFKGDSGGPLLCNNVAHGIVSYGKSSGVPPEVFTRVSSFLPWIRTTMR
Description: (§2) Proteases activities were measured as described in (26) with the specific FRET (fluorescence resonance energy transfer) substrates of HNE, Pr3 and CG: Abz-APEEIMRRQ-YNO2, Abz-VADnVADQ-EDDnp and Abz-TPFSGQ-YNO2 respectively (λex=320 nm and λem=420 nm). The concentrations of active proteases in biological samples were determined by comparing the rates of hydrolysis of their specific substrates with those of commercial titrated proteases under the same experimental conditions. HNE and Pr3 were titrated as described in (27) and CG was titrated with HNE-titrated recombinant human secretory leukocyte protease inhibitor.
(§3) Aliquots of sputum homogenates containing peptidases in the 10 nanomolar range, were incubated for 30 min at room temperature with increasing amounts of inhibitors up to a (I)/(E) molar ratio of about 40. The low Mr recombinant inhibitor EPI-hNE4 or α1-proteinase inhibitor (α1-Pi) were used to inhibit HNE, while α1-antichymotrypsin (ACT) was used to inhibit CG; Pr3 was inhibited with α1-Pi after samples had been incubated with a 1000-fold molar excess of EPI-hNE4 to avoid the α1-Pi interacting with HNE (8).

[5] = target: T2, Pr3 (Homo sapiens, UniProt P24158); assay: Pr3 activity in whole CF sputa and its inhibition by α1-Pi; type: biochemical; conditions: after treatment of whole CF sputum
T2 construct: Aliquots of sputum homogenates containing peptidases in the 10 nanomolar range; from tissue; host or cells: sputum of cystic fibrosis patients (crude homogenate in PBS)
T2 sequence (P24158 28-248 limits assumed): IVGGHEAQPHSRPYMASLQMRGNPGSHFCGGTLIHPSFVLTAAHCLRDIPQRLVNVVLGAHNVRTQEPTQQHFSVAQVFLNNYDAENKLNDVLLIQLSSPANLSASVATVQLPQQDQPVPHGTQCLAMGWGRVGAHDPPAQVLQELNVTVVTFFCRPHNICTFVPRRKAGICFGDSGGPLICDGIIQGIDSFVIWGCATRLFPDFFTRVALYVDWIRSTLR
Description: as §2, §3

[6] = tested on: extracellular DNA; assay: Quantification of extracellular DNA in CF sputum; design: species or system human; conditions: for amount of extracellular DNA: CF sputum after treatment, EvaGreen
Description: as §1
Extracellular DNA is quantified with the non-cell-permeant fluorochrome EvaGreen™ dsDNA reagent (λex=488 nm and λem=520 nm).

[7] = tested on: CF sputum; assay: CF sputum homogenate treatment: visual aspect and cell counting; design: species or system human; conditions: for morphological aspect of the sputum after treatment: CF sputum homogenate, 2 h, 400 μg/ml DNase or 1.5 mg/ml pLK
Description: as §1
The increased viscosity of mucus in the CF lung leads to lung obstruction and subsequent decrease in lung function. Because DNA is a major component of CF lung secretions that contributes to their viscosity, rhDNase has been used for long by CF patients as a liquefying expectorant (28). A possible other mean to fluidize lung secretions could be through the condensation of extracellular DNA by positively charged polymers. We checked this hypothesis using poly-L-lysine (pLK) and comparing the rheological properties of CF sputa before and after treatment by pLK. Then we compared the results with those obtained using DNase in the same conditions.

[8] = tested on: S. aureus (strain CIP 103811); assay: Antimicrobial test and scanning electron microscopy, S. aureus; type: cell-based, Staphylococcus aureus; conditions: for bactericidal effect (CFU): 6×10^6 bacteria, 3 h, 150 μl PBS, 110 μg DNase or 2 μg pLK
Description: (§4) The bacterial count was determined by the measure of OD600nm.
(§5) 6×10^6 bacteria were incubated in low-binding 96-wells microplates 3 h in 150 μl PBS containing 110 μg of DNase or 2 μg of pLK (MW 40,000-50,000 Da). Aliquots of the media were then collected and serial dilutions in PBS were laid on agar plates. CFUs were numbered after incubation at 37° C. Extracellular DNA in the remaining media was quantified as previously described as a marker of bacterial wall permeability.
(§6) 6×10^6 bacteria were settled on polylysine-coated glass slides and treated (or not) with DNase or pLK (pLK of 40,000-50,000 Da). They were then fixed with 1% (v/v) glutaraldehyde and 4% (v/v) paraformaldehyde in 0.1 M PBS, pH 7.4, post-fixed in 2% (v/v) osmium tetroxide, dehydrated in a graded acetone series, dried to the critical point using carbon dioxide, and sputter coated with platinum.

[9] = tested on: P. aeruginosa (strain PAO1); assay: Antimicrobial test and scanning electron microscopy, P. aeruginosa; type: cell-based, Pseudomonas aeruginosa; conditions: for bactericidal effect (CFU): 6×10^6 bacteria, 3 h, 150 μl PBS, 110 μg DNase or 2 μg pLK
Description: as §4, §5, §6

[10] = target: T3, HNE (Homo sapiens, UniProt P08246); assay: HNE activity in whole CF sputa and its inhibition by exogenous inhibitors; type: biochemical; conditions: after treatment of whole CF sputum
T3 construct: Aliquots of sputum homogenates containing peptidases in the 10 nanomolar range; from tissue; host or cells: sputum of cystic fibrosis patients (crude homogenate in PBS)
T3 sequence (P08246 30-247 limits assumed): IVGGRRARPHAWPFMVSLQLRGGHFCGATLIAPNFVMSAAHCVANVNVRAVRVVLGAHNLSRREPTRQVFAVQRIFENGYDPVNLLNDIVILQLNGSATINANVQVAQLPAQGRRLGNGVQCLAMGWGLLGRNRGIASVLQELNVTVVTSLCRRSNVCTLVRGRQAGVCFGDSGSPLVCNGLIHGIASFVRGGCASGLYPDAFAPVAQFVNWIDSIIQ
Description: as §2, §3

[11] = aerosol 2.4 mg/kg (66 μg in 50 μL, about 130 μM), Mann-Whitney test

Molecule	CG inhibition by ACT [4]	activity of PR3 [5]	inhibition of PR3 by α1-Pi [5]	amount of extracellular DNA [6]	morphological aspect of the sputum after treatment [7]	bactericidal effect (CFU) [8]	morphology of the bacteria (scanning electron microscopy) ([8]; S. aureus)	bactericidal effect (CFU) [9]	morphology of the bacteria (scanning electron microscopy) ([9]; P. aeruginosa)	elastase activity in whole sputum [10]	inhibition of elastase activity by elastase inhibitors (α1-Pi) [10]	other results
poly-L-lysine [pLK 500-2,000 Da]	–	–	–	–	–	–	–	–	–	–	–	efficiency of pLK of different sizes [1]: far less efficient
poly-L-lysine [pLK (4-15 kDa)]	–	–	–	–	–	–	–	–	–	–	–	BALF cellularity, treated vs control mice [2, 11]: no significant differences; cytokines quantification (IL6 and KC) in BALF, treated vs control mice [2, 11]: no significant differences; broncho-interstitial inflammation (histological study) ([2]; aerosol 2.4 mg/kg, day 2, both in treated and in control groups): minimal broncho-interstitial inflammation; lung lesion (histological study) ([2]; aerosol 2.4 mg/kg, day 2 and day 5): no lung lesion; cellular toxicity [3]: can be observed; in vitro toxicity threshold [3]: 5 µM; efficiency of pLK of different sizes ([1]; listed as pLK 4,000-15,000 Da): same results as those with higher MW
poly-L-lysine [pLK]	significantly improved	Neither pLK nor DNase treatments significantly affected	Neither pLK nor DNase treatments significantly affected	important decrease	fractionation of the sputum in dense aggregates and a very fluid phase	significant bactericidal effect	less marked	significant bactericidal effect	significant modification of the morphology; also recorded: spiculated surface	dramatic increase; also recorded: increase of elastase activity	stoichiometrically inhibited	DNA degradation in treated sputum ([6]; extracellular content restored after addition of dextran sulfate): not degraded; apparent cell count in sputum homogenate ([7]; trypan blue exclusion, neutrophils found in aggregates): apparent decrease; bacterial wall permeabilization (extracellular DNA, non-cell permeant fluorophore) ([8]; S. aureus): no wall permeabilization; bacterial wall permeabilization (extracellular DNA, non-cell permeant fluorophore) ([9]; P. aeruginosa): disruption of the bacterial wall
DNase: DNase, most widely used mucoactive agent for CF patients; comparator (protein, UniProt P24855 23-282, looked up) Deoxyribonuclease-1: LKIAAFNIQTFGETKMSNATLVSYIVQILSRYDIALVQEVRDSHLTAVGKLLDNLNQDAPDTYHYVVSEPLGRNSYKERYLFVYRPDQVSAVDSYYYDDGCEPCGNDTFNREPAIVRFFSRFTEVREFAIVPLHAAPGDAVAEIDALYDVYLDVQEKWGLEDVMLMGDFNAGCSYVRPSQWSSIRLWTSPTFQWLIPDSADTTATPTHCAYDRIVVAGMLLRGAVVPDSALPFNFQAAYGLSDQLAQAISDHYPVEVMLK	pLK, unlike DNase, significantly improved	Neither pLK nor DNase treatments significantly affected	Neither pLK nor DNase treatments significantly affected	important decrease	no morphological change	no antimicrobial properties	nor it affected the morphology	no antimicrobial properties	nor it affected the morphology	dramatic increase; also recorded: increase of elastase activity	completely and stoichiometrically inhibited	–
